Data on 7 compounds can be found in patent publication US20240317777A1, “NOVEL MACROCYCLIC AMINOPYRAZOLE COMPOUNDS AS CDK2 INHIBITORS” (Accutar Biotechnology Inc., priority 2023, published 2024).

Usually IC50 stands for the concentration at which inhibition is half-maximal.

For test [1], the system named is Phospho-Rb (Ser807/811) in OVCAR3 cells. As to the kind of experiment: Phospho-Rb expression inhibition in OVCAR3 cells quantified by In Cell Western. It counts as cell-based. To be noted: Homo sapiens, OVCAR-3, 24 hours, read-out: OVCAR-3 pRb IC50. In outline: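 In-cell western: after 24 h compound exposure at 37° C, fixed OVCAR3 cells co-stained for pRb Ser807/811 (800 nm channel) and total Rb (680 nm channel), imaged by LI-COR Odyssey.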

Another test has as its system CCNE1-normal SKOV3 cells. Put plainly: Cell growth inhibition of CCNE1-normal SKOV3 cells (CellTiter-Glo). Format: cell-based. To be noted: Homo sapiens, SK-OV-3, 144 h, 6 days. In outline: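 Growth was measured by CellTiter-Glo luminescence after 6 days' compound exposure at 37 °C. Cells were plated one day before dosing at 1000 per well in medium with 10% FBS, and compounds were diluted from DMSO stocks.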

The subject of test [2] is CCNE1-amplified OVCAR3 cells. As to the kind of experiment: Cell growth inhibition of CCNE1-amplified OVCAR3 cells (CellTiter-Glo). It counts as cell-based. To be noted: Homo sapiens, OVCAR-3, 144 h, 6 days. In outline:
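Growth read-out was CellTiter-Glo luminescence, taken after 10 min at room temperature at the end of a 6-day compound exposure at 37 °C. Compounds were diluted from DMSO stocks across various concentrations.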

A further test has as its target CDK2-CYCLIN E1 (Homo sapiens, UniProt P24941). Put plainly: CDK protein kinase inhibition by ADP-Glo assay, CDK2-CYCLIN E1. To be noted: ADP-Glo, 1000 μM ATP, read-out: CDK2-CYCLINE, IC50. Format: biochemical. In outline: (§1)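 Compounds were incubated at 22° C with the CDK/cyclin complex, peptide substrate, 1000 μM ATP and 5 mM MgCl2. The reaction was then quenched and ADP formation quantified by luminescence using ADP-Glo reagents.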

The next test addresses CDK6-CYCLIN D3 (Homo sapiens, UniProt Q00534). As to the kind of experiment: CDK protein kinase inhibition by ADP-Glo assay, CDK6-CYCLIN D3. It counts as biochemical. The note with it: for IC50: ADP-Glo, 1000 μM ATP, read-out: CDK6-CYCLIND3, IC50; for CDK2 Fold selectivity, CDK6: CDK2 versus CDK6. Put shortly: as §1
A further test concerns the target CDK9-CYCLIN T1 (Homo sapiens, UniProt P50750). Put plainly: CDK protein kinase inhibition by ADP-Glo assay, CDK9-CYCLIN T1. Format: biochemical. To be noted: for IC50: ADP-Glo, 1000 μM ATP, read-out: CDK9-CYCLINT1, IC50; for CDK2 Fold selectivity, CDK9: CDK2 versus CDK9. In outline:
as §1

In another test the target is CDK1-CYCLIN B (Homo sapiens, UniProt P06493). Put plainly: CDK protein kinase inhibition by ADP-Glo assay, CDK1-CYCLIN B. It counts as biochemical. To be noted: for IC50: ADP-Glo, 1000 μM ATP, read-out: CDK1-CYCLINB, IC50; for CDK2 Fold selectivity, CDK1: CDK2 versus CDK1. Put shortly: as §1
For orientation: ADP-Glo turns the ADP formed in a reaction into a luminescent signal.

The target of another test is CDK4-CYCLIN D1 (Homo sapiens, UniProt P11802). As to the kind of experiment: CDK protein kinase inhibition by ADP-Glo assay, CDK4-CYCLIN D1. Format: biochemical. The note with it: for IC50: ADP-Glo, 1000 μM ATP, read-out: CDK4-CYCLIND1, IC50; for CDK2 Fold selectivity, CDK4: CDK2 versus CDK4. In outline:
as §1

Where two headings read alike, the source gives them in different places.

Chain of CDK4-CYCLIN D1 (P11802 whole entry): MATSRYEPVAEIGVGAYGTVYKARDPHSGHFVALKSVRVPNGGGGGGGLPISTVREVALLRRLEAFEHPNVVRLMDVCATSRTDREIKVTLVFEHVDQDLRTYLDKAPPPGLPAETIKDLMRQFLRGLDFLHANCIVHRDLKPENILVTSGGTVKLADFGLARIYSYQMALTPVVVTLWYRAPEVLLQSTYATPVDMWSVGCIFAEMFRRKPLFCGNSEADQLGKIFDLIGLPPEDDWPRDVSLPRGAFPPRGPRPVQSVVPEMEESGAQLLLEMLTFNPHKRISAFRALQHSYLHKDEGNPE
Chain of CDK4-CYCLIN D1 (P24385 whole entry partner): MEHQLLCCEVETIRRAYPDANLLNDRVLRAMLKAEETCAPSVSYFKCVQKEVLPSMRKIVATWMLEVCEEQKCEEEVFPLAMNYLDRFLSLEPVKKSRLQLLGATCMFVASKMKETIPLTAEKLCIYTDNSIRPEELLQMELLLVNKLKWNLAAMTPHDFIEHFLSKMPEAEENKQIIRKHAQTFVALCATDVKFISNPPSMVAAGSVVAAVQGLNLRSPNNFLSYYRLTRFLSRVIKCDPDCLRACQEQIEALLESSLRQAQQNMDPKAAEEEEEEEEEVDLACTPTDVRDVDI
Chain of CDK1-CYCLIN B (P06493 whole entry): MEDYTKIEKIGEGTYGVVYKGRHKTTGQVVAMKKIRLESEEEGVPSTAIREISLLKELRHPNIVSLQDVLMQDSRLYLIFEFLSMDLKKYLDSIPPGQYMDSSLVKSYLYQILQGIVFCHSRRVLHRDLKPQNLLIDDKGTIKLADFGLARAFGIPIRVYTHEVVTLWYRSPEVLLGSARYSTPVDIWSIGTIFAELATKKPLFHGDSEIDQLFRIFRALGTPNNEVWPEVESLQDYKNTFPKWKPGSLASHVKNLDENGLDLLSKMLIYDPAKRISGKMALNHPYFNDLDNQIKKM
Chain of CDK1-CYCLIN B (P14635 whole entry partner): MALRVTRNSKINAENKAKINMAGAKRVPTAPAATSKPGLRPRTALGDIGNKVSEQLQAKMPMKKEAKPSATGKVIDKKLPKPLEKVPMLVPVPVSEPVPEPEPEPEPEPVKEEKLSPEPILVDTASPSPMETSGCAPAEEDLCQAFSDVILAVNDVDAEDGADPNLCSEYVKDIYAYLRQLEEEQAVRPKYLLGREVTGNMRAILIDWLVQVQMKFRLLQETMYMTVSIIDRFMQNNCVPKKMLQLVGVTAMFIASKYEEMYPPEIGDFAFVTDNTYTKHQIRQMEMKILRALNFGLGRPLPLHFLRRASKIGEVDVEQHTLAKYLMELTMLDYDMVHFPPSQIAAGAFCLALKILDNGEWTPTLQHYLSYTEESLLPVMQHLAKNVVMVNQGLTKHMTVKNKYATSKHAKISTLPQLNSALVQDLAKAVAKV
Chain of CDK9-CYCLIN T1 (P50750 whole entry): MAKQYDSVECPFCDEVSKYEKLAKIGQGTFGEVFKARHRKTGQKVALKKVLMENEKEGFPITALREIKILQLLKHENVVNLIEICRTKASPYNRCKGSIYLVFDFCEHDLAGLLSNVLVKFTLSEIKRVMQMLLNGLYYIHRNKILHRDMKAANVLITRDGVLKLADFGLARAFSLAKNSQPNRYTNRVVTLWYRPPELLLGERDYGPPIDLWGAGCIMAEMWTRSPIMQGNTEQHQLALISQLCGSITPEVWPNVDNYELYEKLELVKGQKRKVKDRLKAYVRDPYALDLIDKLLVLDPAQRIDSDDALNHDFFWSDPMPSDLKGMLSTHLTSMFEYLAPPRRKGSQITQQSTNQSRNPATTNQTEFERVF
Chain of CDK9-CYCLIN T1 (O60563 whole entry partner): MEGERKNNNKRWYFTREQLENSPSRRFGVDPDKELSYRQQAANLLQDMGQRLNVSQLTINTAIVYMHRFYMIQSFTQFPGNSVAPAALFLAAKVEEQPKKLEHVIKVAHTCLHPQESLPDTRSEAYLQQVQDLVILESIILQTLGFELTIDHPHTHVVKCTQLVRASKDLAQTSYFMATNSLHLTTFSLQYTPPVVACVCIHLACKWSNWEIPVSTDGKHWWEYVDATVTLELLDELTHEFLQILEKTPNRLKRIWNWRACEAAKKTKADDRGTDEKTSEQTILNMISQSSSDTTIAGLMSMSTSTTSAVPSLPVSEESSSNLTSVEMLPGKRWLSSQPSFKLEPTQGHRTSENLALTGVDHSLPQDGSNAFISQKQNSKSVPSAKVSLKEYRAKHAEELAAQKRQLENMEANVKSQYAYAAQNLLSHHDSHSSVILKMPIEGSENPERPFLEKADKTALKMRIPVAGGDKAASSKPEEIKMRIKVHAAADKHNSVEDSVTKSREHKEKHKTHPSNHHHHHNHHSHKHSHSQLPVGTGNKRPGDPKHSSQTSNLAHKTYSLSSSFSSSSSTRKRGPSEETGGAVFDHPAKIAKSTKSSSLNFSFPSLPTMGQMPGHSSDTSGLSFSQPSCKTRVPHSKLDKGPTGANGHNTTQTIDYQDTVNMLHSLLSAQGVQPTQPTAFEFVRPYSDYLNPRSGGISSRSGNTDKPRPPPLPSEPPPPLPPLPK
Chain of CDK6-CYCLIN D3 (Q00534 whole entry): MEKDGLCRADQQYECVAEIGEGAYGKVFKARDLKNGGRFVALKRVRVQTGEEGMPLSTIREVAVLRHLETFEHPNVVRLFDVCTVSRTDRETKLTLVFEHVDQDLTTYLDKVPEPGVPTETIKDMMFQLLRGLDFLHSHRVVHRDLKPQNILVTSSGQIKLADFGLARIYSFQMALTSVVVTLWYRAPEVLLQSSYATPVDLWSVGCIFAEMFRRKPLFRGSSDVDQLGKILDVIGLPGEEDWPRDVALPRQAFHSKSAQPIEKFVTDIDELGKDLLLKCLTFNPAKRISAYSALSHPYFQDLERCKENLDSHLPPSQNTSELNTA
Chain of CDK6-CYCLIN D3 (P30281 whole entry partner): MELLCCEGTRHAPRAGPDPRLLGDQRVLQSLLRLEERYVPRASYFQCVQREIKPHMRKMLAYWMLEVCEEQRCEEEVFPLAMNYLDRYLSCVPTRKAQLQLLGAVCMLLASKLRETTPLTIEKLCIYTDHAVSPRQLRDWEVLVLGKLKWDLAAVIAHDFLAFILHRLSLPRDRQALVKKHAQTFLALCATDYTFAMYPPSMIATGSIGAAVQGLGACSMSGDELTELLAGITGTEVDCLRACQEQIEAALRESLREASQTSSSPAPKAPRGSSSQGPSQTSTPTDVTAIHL

On to `C[C@@H]1CCCOc2cncc(c2)Nc2cc(n[nH]2)[C@H]2CC[C@H](C2)OC(=O)N1` [Compound 120, (1^1S,1^3R,9R,Z)-9-methyl-2^1H-5,12-dioxa-3,10-diaza-4(3,5)-pyridina-2(3,5)-pyrazola-1(1,3)-cyclopentanacyclododecaphan-11-one], for which the IC50 in test [1] is 2 to 10 nM; in the test with CCNE1-normal SKOV3 cells, greater than 1250 nM; in test [2], 10 to 50 nM; at CDK2-CYCLIN E1 (Table 13), no more than 10 nM; on CDK6-CYCLIN D3 (Table 13), 10 to 50 nM; at CDK9-CYCLIN T1 (Table 13) it was 50 to 100 nM. Besides, the concentration for half-maximal inhibition (IC50) lay within 10 to 50 nM on CDK1-CYCLIN B (Table 13) and 50 to 100 nM on CDK4-CYCLIN D1 (Table 13). Further, the “CDK2 Fold selectivity, CDK6” value on CDK6-CYCLIN D3 (Table 14) is “E (E, <20)”. Also, the “CDK2 Fold selectivity, CDK9” value on CDK9-CYCLIN T1 (Table 14) is “C (C, >50 and ≤100)”. Also, the “CDK2 Fold selectivity, CDK1” value at CDK1-CYCLIN B (Table 14) was “E (E, <20)”. Besides, on CDK4-CYCLIN D1 (Table 14), the “CDK2 Fold selectivity, CDK4” value was “C (C, >50 and ≤100)”.
Take `C[C@@H]1CCCNC(=O)O[C@@H]2CC[C@@H](C2)c2cc([nH]n2)Nc2cncc(c2)O1` [Compound 121, (1^1S,1^3R,6R,Z)-6-methyl-2^1H-5,12-dioxa-3,10-diaza-4(3,5)-pyridina-2(3,5)-pyrazola-1(1,3)-cyclopentanacyclododecaphan-11-one]: the 50% inhibitory concentration (IC50) in test [1] was 10 to 50 nM; in the test with CCNE1-normal SKOV3 cells, greater than 1250 nM; in test [2], 50 to 250 nM; at CDK2-CYCLIN E1 (Table 13), no more than 10 nM; on CDK6-CYCLIN D3 (Table 13), 100 to 500 nM; on CDK9-CYCLIN T1 (Table 13), 100 to 500 nM. The IC50 was 100 to 500 nM on CDK1-CYCLIN B (Table 13) and greater than 500 nM on CDK4-CYCLIN D1 (Table 13). Moreover, on CDK6-CYCLIN D3 (Table 14), the “CDK2 Fold selectivity, CDK6” value was “C (C, >50 and ≤100)”. Moreover, the “CDK2 Fold selectivity, CDK9” value on CDK9-CYCLIN T1 (Table 14) was “B (B, >100 and ≤500)”. Also, on CDK1-CYCLIN B (Table 14), the “CDK2 Fold selectivity, CDK1” value was “D (D, >20 and ≤50)”. Also, the “CDK2 Fold selectivity, CDK4” value on CDK4-CYCLIN D1 (Table 14) was “B (B, >100 and ≤500)”.
As to `C[C@H]1CC/C=C/c2cc(ccn2)Nc2cc(n[nH]2)[C@H]2CC[C@H](C2)OC(=O)N1` [Compound 125, (1^1S,1^3R,2^4Z,5E,9S)-9-methyl-2^1H-12-oxa-3,10-diaza-4(4,2)-pyridina-2(3,5)-pyrazola-1(1,3)-cyclopentanacyclododecaphan-5-en-11-one], the IC50 in test [1] was 2 to 10 nM; with CCNE1-normal SKOV3 cells, 250 to 1250 nM; in test [2], 10 to 50 nM; on CDK2-CYCLIN E1 (Table 19) it was no more than 10 nM; at CDK6-CYCLIN D3 (Table 19), 100 to 500 nM; at CDK9-CYCLIN T1 (Table 19) it was 100 to 500 nM. Also, the IC50 on CDK1-CYCLIN B (Table 19) and on CDK4-CYCLIN D1 (Table 19) was 100 to 500 nM in each case. For the same compound, the “CDK2 Fold selectivity, CDK6” value at CDK6-CYCLIN D3 (Table 20) was “D (D, >20 and ≤50)”. For the same compound, the “CDK2 Fold selectivity, CDK9” value at CDK9-CYCLIN T1 (Table 20) was “D (D, >20 and ≤50)”. The “CDK2 Fold selectivity, CDK1” value on CDK1-CYCLIN B (Table 20) was “E (E, <20)”. Moreover, the “CDK2 Fold selectivity, CDK4” value on CDK4-CYCLIN D1 (Table 20) is “E (E, <20)”.
For `C[C@@H]1CC/C=C/c2cc(ccn2)Nc2cc(n[nH]2)[C@H]2CC[C@H](C2)OC(=O)N1` [Compound 126, (1^1S,1^3R,2^4Z,5E,9R)-9-methyl-2^1H-12-oxa-3,10-diaza-4(4,2)-pyridina-2(3,5)-pyrazola-1(1,3)-cyclopentanacyclododecaphan-5-en-11-one], the half-inhibitory concentration (IC50) in test [1] fell in the range of 10 to 50 nM; in the test on CCNE1-normal SKOV3 cells it was 250 to 1250 nM; in test [2], 50 to 250 nM; on CDK2-CYCLIN E1 (Table 19), 50 to 100 nM; on CDK6-CYCLIN D3 (Table 19), 100 to 500 nM; on CDK9-CYCLIN T1 (Table 19), 100 to 500 nM. For the same compound, the 50% inhibitory concentration (IC50) at CDK1-CYCLIN B (Table 19) and on CDK4-CYCLIN D1 (Table 19) was 100 to 500 nM in each case. The “CDK2 Fold selectivity, CDK6” value on CDK6-CYCLIN D3 (Table 20) is given as “E (E, <20)”. The “CDK2 Fold selectivity, CDK9” value at CDK9-CYCLIN T1 (Table 20) is recorded as “E (E, <20)”. Moreover, on CDK1-CYCLIN B (Table 20), the “CDK2 Fold selectivity, CDK1” value is reported as “E (E, <20)”. For the same compound, the “CDK2 Fold selectivity, CDK4” value on CDK4-CYCLIN D1 (Table 20) is listed as “E (E, <20)”.
Turning to `O=C1NC2CC3(C2)CC(C3)Oc2cc(ccn2)Nc2cc(n[nH]2)[C@H]2CC[C@H](C2)O1` [Compound 128, (6^1S,6^3R,Z)-5^1H-2,7-dioxa-4,9-diaza-3(2,4)-pyridina-5(5,3)-pyrazola-6(1,3)-cyclopentana-1,10(1,3)-dicyclobutanadecaphan-8-one], the IC50 is 2 to 10 nM in test [1]; 250 to 1250 nM in the test with CCNE1-normal SKOV3 cells; 2 to 10 nM in test [2]; no more than 10 nM on CDK2-CYCLIN E1 (Table 17); 10 to 50 nM at CDK6-CYCLIN D3 (Table 17); 10 to 50 nM on CDK9-CYCLIN T1 (Table 17). Also, the concentration for half-maximal inhibition (IC50) at CDK1-CYCLIN B (Table 17) and at CDK4-CYCLIN D1 (Table 17) was 10 to 50 nM throughout. The “CDK2 Fold selectivity, CDK6” value on CDK6-CYCLIN D3 (Table 18) is given as “E (E, <20)”. The “CDK2 Fold selectivity, CDK9” value at CDK9-CYCLIN T1 (Table 18) is on record as “E (E, <20)”. Besides, the “CDK2 Fold selectivity, CDK1” value at CDK1-CYCLIN B (Table 18) is “E (E, <20)”. Also, at CDK4-CYCLIN D1 (Table 18), the “CDK2 Fold selectivity, CDK4” value is “D (D, >20 and ≤50)”.
With `C[C@@H]1CCC#Cc2cc(ccn2)Nc2cc(n[nH]2)[C@H]2CC[C@H](C2)OC(=O)N1` [Compound 137, (1^1S,1^3R,2^4Z,9R)-9-methyl-2^1H-12-oxa-3,10-diaza-4(4,2)-pyridina-2(3,5)-pyrazola-1(1,3)-cyclopentanacyclododecaphan-5-yn-11-one], the IC50 in test [1] is 10 to 50 nM; in the test on CCNE1-normal SKOV3 cells, greater than 1250 nM; in test [2], 50 to 250 nM; on CDK2-CYCLIN E1 (Table 19), 10 to 50 nM; on CDK6-CYCLIN D3 (Table 19), greater than 500 nM; on CDK9-CYCLIN T1 (Table 19), greater than 500 nM. The half-maximal inhibitory concentration (IC50) on CDK1-CYCLIN B (Table 19) is 100 to 500 nM; on CDK4-CYCLIN D1 (Table 19) it was greater than 500 nM. The “CDK2 Fold selectivity, CDK6” value on CDK6-CYCLIN D3 (Table 20) was “D (D, >20 and ≤50)”. Also, the “CDK2 Fold selectivity, CDK9” value on CDK9-CYCLIN T1 (Table 20) was “D (D, >20 and ≤50)”. The “CDK2 Fold selectivity, CDK1” value on CDK1-CYCLIN B (Table 20) is given as “E (E, <20)”. For the same compound, the “CDK2 Fold selectivity, CDK4” value at CDK4-CYCLIN D1 (Table 20) is listed as “E (E, <20)”.
Take `C[C@H]1Oc2cc(ccn2)Nc2cc(n[nH]2)[C@H]2CC[C@H](C2)OC(=O)N[C@H]2C[C@H]1C2` [Compound 144, (1^1S,1^3R,7^1R,7^3R,6R,Z)-6-methyl-2^1H-5,10-dioxa-3,8-diaza-4(4,2)-pyridina-2(3,5)-pyrazola-1(1,3)-cyclopentana-7(1,3)-cyclobutanacyclodecaphan-9-one]: the IC50 in test [1] was 2 to 10 nM; in the test on CCNE1-normal SKOV3 cells, 250 to 1250 nM; in test [2], 2 to 10 nM; at CDK2-CYCLIN E1 (Table 21), no more than 10 nM; at CDK6-CYCLIN D3 (Table 21) it was 100 to 500 nM; at CDK9-CYCLIN T1 (Table 21), 100 to 500 nM. Moreover, the IC50 on CDK1-CYCLIN B (Table 21) and on CDK4-CYCLIN D1 (Table 21) was 100 to 500 nM throughout. In addition, on CDK6-CYCLIN D3 (Table 22), the “CDK2 Fold selectivity, CDK6” value was “D (D, >20 and ≤50)”. Besides, the “CDK2 Fold selectivity, CDK9” value on CDK9-CYCLIN T1 (Table 22) was “C (C, >50 and ≤100)”. In addition, the “CDK2 Fold selectivity, CDK1” value on CDK1-CYCLIN B (Table 22) is recorded as “E (E, <20)”. Moreover, the “CDK2 Fold selectivity, CDK4” value on CDK4-CYCLIN D1 (Table 22) was “D (D, >20 and ≤50)”.
